Experimental findings from US7404975B2, “Moringa crude extracts and their derived fractions with antifungal activities” (Academia Sinica, priority 2006, dated 2008) are described below.

This assay deals with Epidermophyton floccosum. The assay can be described thus: Broth dilution anti-fungal susceptibility assay (NCCLS M38-A), MIC. The assay is classed as cell-based. As for the experimental part: M. oleifera was grown and collected from Taichung, Taiwan. The seeds were de-hulled and the seed kernels dried at 100° C. for 24 h before extraction. The leaves were freshly harvested from M. oleifera trees of at least one-year-old and immediately air-dried. All materials were lyophilized and powdered before experiments. The dermatophytes used in this study were obtained from the Food Industry Research and Development Institute (FIRDI) in Taiwan. Trichophyton rubrum (BCRC 32805), Trichophyton mentagrophytes (BCRC 32066), Epidermophyton floccosum (BCRC 30531) and Microsporum canis (BCRC 30541) were maintained by monthly sub-culturing on Sabouraud dextrose agar (SDA) at 28° C.
The anti-fungal assays followed the protocol (document M38-A) of The National Committee for Clinical Laboratory Standards (NCCLS) in the USA. The protocol is a standard method for broth dilution anti-fungal susceptibility testing of filamentous fungi. 100× of the drug (such as ketoconozole; the MICs of this agent tested on the fungi described above were from 0.125 μg/ml to 12.5 μg/ml ) used for the control experiment. […] The minimal inhibitory concentration (MIC), which is defined as the lowest concentration of an anti-microbial agent preventing the visible growth of a microorganism in an agar or broth dilution susceptibility test (numerical score 0), was determined for each test sample.

Take `CC(=O)N1CCN(c2ccc(OCC3COC(Cn4ccnc4)(c4ccc(Cl)cc4Cl)O3)cc2)CC1` (stereo not shown) [ketoconozole, ketoconazole]: the “MIC (text comparison ketoconozole vs EOF)” value is 0.125 ˜ig/ml.
